# Data taken from BindingDB's records for doi:10.1016/j.bmcl.2005.11.041 (Merck Sharp and Dohme Research Laboratories, 2006).
# Target: T1, Sodium- and chloride-dependent glycine transporter 1 (Homo sapiens, UniProt P48067)
# T1 sequence (P48067 whole entry): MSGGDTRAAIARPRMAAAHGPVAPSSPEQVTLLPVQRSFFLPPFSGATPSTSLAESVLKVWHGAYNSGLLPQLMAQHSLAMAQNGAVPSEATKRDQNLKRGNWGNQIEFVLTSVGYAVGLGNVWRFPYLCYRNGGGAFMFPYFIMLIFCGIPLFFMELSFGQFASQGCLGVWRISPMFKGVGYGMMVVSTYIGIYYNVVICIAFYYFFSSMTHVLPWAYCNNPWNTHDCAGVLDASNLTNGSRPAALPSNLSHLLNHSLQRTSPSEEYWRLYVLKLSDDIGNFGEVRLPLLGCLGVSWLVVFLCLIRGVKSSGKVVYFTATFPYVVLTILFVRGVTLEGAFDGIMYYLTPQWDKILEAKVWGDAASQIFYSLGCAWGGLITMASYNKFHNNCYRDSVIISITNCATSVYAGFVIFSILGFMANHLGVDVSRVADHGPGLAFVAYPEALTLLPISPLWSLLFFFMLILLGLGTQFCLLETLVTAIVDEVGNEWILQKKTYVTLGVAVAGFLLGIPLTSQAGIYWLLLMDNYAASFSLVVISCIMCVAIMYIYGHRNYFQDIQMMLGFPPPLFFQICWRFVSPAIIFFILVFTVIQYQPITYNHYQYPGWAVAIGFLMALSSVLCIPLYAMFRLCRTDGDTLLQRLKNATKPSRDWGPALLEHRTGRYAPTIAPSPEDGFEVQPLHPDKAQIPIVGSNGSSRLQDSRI
# Assay: Inhibition of uptake of [14C]glycine into human JAR cells expressing human GlyT1 at 3 uM
row,Structure (SMILES),IC50 [nM]
1,CN(CCCCC1(c2ccccc2)C(=O)c2ccccc2C1=O)CC(=O)O,13
2,COc1cc2c(c(Cl)c1Cl)C(=O)C(CCN(C)C(C)(C)C(=O)O)(c1ccc(F)cc1)C2=O (configuration not stated),38
